Source: patent EP2826473A1, “NOVEL USE OF PATCHOULOL” (Chengdu Huasun Group Inc., Ltd., priority 2012, dated 2013)
In brackets after ≈: the same amount, converted by molar mass. Counter-ions that a name gives are not always drawn. Like-named read-outs stand apart in the source and are kept apart here. Each block holds one compound with its values, some of them ahead of it.

How the values were obtained:
Assay type in all cases: cell-based
[1] = system: Staphylococcus aureus MSSA; assay: in vitro bacteriostatic activity, agar dilution MIC; conditions: Staphylococcus aureus, MSSA
[2] = system: Streptococcus pneumoniae; assay: as above
[3] = system: Enterococcus faecalis; assay: as above
[4] = system: Staphylococcus epidermidis MSSE; assay: as above
[5] = system: Staphylococcus epidermidis ATCC 12228; assay: in vitro bacteriostatic activity, agar dilution MIC, quality control strain; conditions: ATCC12228
[6] = system: Enterococcus faecium; assay: in vitro bacteriostatic activity, agar dilution MIC
[7] = Staphylococcus aureus MSSA 12-11, read-out: MIC
[8] = Staphylococcus aureus MSSA 12-13, read-out: MIC
[9] = Staphylococcus aureus MSSA 12-14, read-out: MIC
[10] = Staphylococcus aureus MSSA 12-16, read-out: MIC
[11] = Staphylococcus aureus MSSA 12-17, read-out: MIC
[12] = Staphylococcus aureus MSSA 12-19, read-out: MIC
[13] = Staphylococcus aureus MSSA 12-20, read-out: MIC
[14] = Enterococcus faecalis, ATCC29212, Enterococcus faecalis ATCC 29212, read-out: MIC
[15] = Enterococcus faecalis, ATCC51299, Enterococcus faecalis (high endurance) ATCC 51299, read-out: MIC
[16] = Enterococcus faecalis, Enterococcus faecalis 12-11, read-out: MIC
[17] = Enterococcus faecalis, Enterococcus faecalis 12-12, read-out: MIC
[18] = Enterococcus faecalis, Enterococcus faecalis 12-13, read-out: MIC
[19] = Enterococcus faecalis, Enterococcus faecalis 12-14, read-out: MIC
[20] = Enterococcus faecalis, Enterococcus faecalis 12-17, read-out: MIC
[21] = Enterococcus faecalis, Enterococcus faecalis 12-18, read-out: MIC
[22] = Enterococcus faecalis, Enterococcus faecalis 12-19, read-out: MIC
[23] = Enterococcus faecalis, Enterococcus faecalis 12-20, read-out: MIC
[24] = Enterococcus faecalis, Enterococcus faecalis 12-21, read-out: MIC
[25] = Enterococcus faecalis, Enterococcus faecalis 12-22, read-out: MIC
[26] = Staphylococcus epidermidis, Staphylococcus epidermidis MSSE 12-12, read-out: MIC
[27] = Staphylococcus epidermidis, Staphylococcus epidermidis MSSE 12-13, read-out: MIC
[28] = Staphylococcus epidermidis, Staphylococcus epidermidis MSSE 12-14, read-out: MIC
[29] = Staphylococcus epidermidis, Staphylococcus epidermidis MSSE 12-15, read-out: MIC
[30] = Staphylococcus epidermidis, Staphylococcus epidermidis MSSE 12-16, read-out: MIC
[31] = Staphylococcus epidermidis, Staphylococcus epidermidis MSSE 12-17, read-out: MIC
[32] = Staphylococcus epidermidis, Staphylococcus epidermidis MSSE 12-18, read-out: MIC
[33] = Staphylococcus epidermidis, Staphylococcus epidermidis MSSE 12-19, read-out: MIC
[34] = Enterococcus faecium, ATCC33186, Enterococcus faecium ATCC 33186, read-out: MIC
[35] = Enterococcus faecium, Enterococcus faecium 12-7, read-out: MIC
[36] = Enterococcus faecium, Enterococcus faecium 12-8, read-out: MIC
[37] = Enterococcus faecium, Enterococcus faecium 12-9, read-out: MIC
[38] = Enterococcus faecium, Enterococcus faecium 12-10, read-out: MIC
[39] = Enterococcus faecium, Enterococcus faecium 12-11, read-out: MIC
[40] = Enterococcus faecium, Enterococcus faecium 12-12, read-out: MIC
[41] = Enterococcus faecium, Enterococcus faecium 12-13, read-out: MIC
[42] = Enterococcus faecium, Enterococcus faecium 12-14, read-out: MIC
[43] = Enterococcus faecium, Enterococcus faecium 12-15, read-out: MIC
[44] = Enterococcus faecium, Enterococcus faecium 12-16, read-out: MIC
[45] = Staphylococcus aureus MSSA 12-15
[46] = Staphylococcus aureus MSSA 12-18
[47] = Staphylococcus aureus MSSA 12-21

- MIC [1, 7]: 0.5 µg/mL
- MIC [1, 8]: 0.5 µg/mL
- MIC [1, 9]: 0.5 µg/mL
- MIC ([1]; Staphylococcus aureus MSSA 12-15, read-out: MIC): 0.25 µg/mL
- MIC [1, 10]: 0.5 µg/mL
- MIC [1, 11]: 0.125 µg/mL
- MIC ([1]; Staphylococcus aureus MSSA 12-18, read-out: MIC): 0.25 µg/mL
- MIC [1, 12]: 0.25 µg/mL
- MIC [1, 13]: 0.5 µg/mL
- MIC ([1]; Staphylococcus aureus MSSA 12-21, read-out: MIC): 0.25 µg/mL
- MIC ([2]; ATCC49619, Streptococcus pneumonia ATCC 49619): 0.2 µg/mL
- MIC ([2]; Streptococcus pneumonia 12-6): 0.05 µg/mL
- MIC ([2]; Streptococcus pneumonia 12-7): 0.1 µg/mL
- MIC ([2]; Streptococcus pneumonia 12-8): 0.1 µg/mL
- MIC ([2]; Streptococcus pneumonia 12-9): 0.1 µg/mL
- MIC ([2]; Streptococcus pneumonia 12-10): 0.2 µg/mL
- MIC ([2]; Streptococcus pneumoniae 12-1): 0.1 µg/mL
- MIC ([2]; Streptococcus pneumoniae 12-2): 0.2 µg/mL
- MIC ([2]; Streptococcus pneumoniae 12-3): 0.1 µg/mL
- MIC ([2]; Streptococcus pneumoniae 12-4): 0.4 µg/mL
- MIC ([2]; Streptococcus pneumoniae 12-5): 0.05 µg/mL
- MIC [3, 14]: 1 µg/mL
- MIC [3, 15]: 1 µg/mL
- MIC [3, 16]: > 128 µg/mL
- MIC [3, 17]: 1 µg/mL
- MIC [3, 18]: 32 µg/mL
- MIC [3, 19]: 1 µg/mL
- MIC [3, 20]: 2 µg/mL
- MIC [3, 21]: 2 µg/mL
- MIC [3, 22]: 2 µg/mL
- MIC [3, 23]: 2 µg/mL
- MIC [3, 24]: 2 µg/mL
- MIC [3, 25]: 1 µg/mL
- MIC ([4]; Staphylococcus epidermidis, Staphylococcus epidermidis MSSE 12-11, read-out: MIC): 0.03 µg/mL
- MIC [4, 26]: 0.06 µg/mL
- MIC [4, 27]: 0.5 µg/mL
- MIC [4, 28]: 8 µg/mL
- MIC [4, 29]: 8 µg/mL
- MIC [4, 30]: 0.06 µg/mL
- MIC [4, 31]: 0.03 µg/mL
- MIC [4, 32]: 0.06 µg/mL
- MIC [4, 33]: 0.06 µg/mL
- MIC ([4]; Staphylococcus epidermidis, Staphylococcus epidermidis MSSE 12-20, read-out: MIC): 0.03 µg/mL
- MIC ([5]; Staphylococcus epidermidis ATCC 12228, read-out: MIC): 0.5 µg/mL
- MIC [6, 34]: 2 µg/mL
- MIC [6, 35]: 128 µg/mL
- MIC [6, 36]: > 128 µg/mL
- MIC [6, 37]: 128 µg/mL
- MIC [6, 38]: > 128 µg/mL
- MIC [6, 39]: 128 µg/mL
- MIC [6, 40]: > 128 µg/mL
- MIC [6, 41]: > 128 µg/mL
- MIC [6, 42]: > 128 µg/mL
- MIC [6, 43]: 128 µg/mL
- MIC [6, 44]: 128 µg/mL
Compound: CC1(C)S[C@@H]2[C@H](NC(=O)Cc3ccccc3)C(=O)N2[C@H]1C(=O)O [penicillin, Benzylpenicillin sodium]

Compound: CC[C@H]1OC(=O)[C@H](C)[C@@H](O[C@H]2C[C@@](C)(OC)[C@@H](O)[C@H](C)O2)[C@H](C)[C@@H](O[C@@H]2O[C@H](C)C[C@H](N(C)C)[C@H]2O)[C@](C)(O)C[C@@H](C)CN(C)[C@H](C)[C@@H](O)[C@]1(C)O [azithromycin, Azithromycin]
- MIC [1, 7]: > 128 µg/mL
- MIC [1, 8]: 0.25 µg/mL (≈ 0.334 µM)
- MIC [1, 9]: > 128 µg/mL
- MIC [1, 45]: 0.125 µg/mL (≈ 0.167 µM)
- MIC [1, 10]: > 128 µg/mL
- MIC [1, 11]: > 128 µg/mL
- MIC [1, 46]: 128 µg/mL (≈ 171 µM)
- MIC [1, 12]: > 128 µg/mL
- MIC [1, 13]: > 128 µg/mL
- MIC [1, 47]: 128 µg/mL (≈ 171 µM)
- MIC [3, 14]: 4 µg/mL (≈ 5.34 µM)
- MIC [3, 15]: > 128 µg/mL
- MIC [3, 16]: > 128 µg/mL
- MIC [3, 17]: 4 µg/mL (≈ 5.34 µM)
- MIC [3, 18]: > 128 µg/mL
- MIC [3, 19]: 1 µg/mL (≈ 1.34 µM)
- MIC [3, 20]: > 128 µg/mL
- MIC [3, 21]: > 128 µg/mL
- MIC [3, 22]: > 128 µg/mL
- MIC [3, 23]: > 128 µg/mL
- MIC [3, 24]: > 128 µg/mL
- MIC [3, 25]: > 128 µg/mL
- MIC ([4]; Staphylococcus epidermidis): 128 µg/mL (≈ 171 µM)
- MIC ([4]; Staphylococcus epidermidis MSSE 12-20): 128 µg/mL (≈ 171 µM)
- MIC [4, 26]: 4 µg/mL (≈ 5.34 µM)
- MIC [4, 27]: > 128 µg/mL
- MIC [4, 28]: 8 µg/mL (≈ 10.7 µM)
- MIC [4, 29]: 8 µg/mL (≈ 10.7 µM)
- MIC [4, 30]: 64 µg/mL (≈ 85.4 µM)
- MIC [4, 31]: 8 µg/mL (≈ 10.7 µM)
- MIC [4, 32]: 16 µg/mL (≈ 21.4 µM)
- MIC [4, 33]: 16 µg/mL (≈ 21.4 µM)
- MIC ([5]; Staphylococcus epidermidis): 0.125 µg/mL (≈ 0.167 µM)
- MIC [6, 34]: 2 µg/mL (≈ 2.67 µM)
- MIC [6, 35]: > 128 µg/mL
- MIC [6, 36]: 1 µg/mL (≈ 1.34 µM)
- MIC [6, 37]: > 128 µg/mL
- MIC [6, 38]: > 128 µg/mL
- MIC [6, 39]: > 128 µg/mL
- MIC [6, 40]: > 128 µg/mL
- MIC [6, 41]: > 128 µg/mL
- MIC [6, 42]: > 128 µg/mL
- MIC [6, 43]: > 128 µg/mL
- MIC [6, 44]: > 128 µg/mL

- MIC ([1]; Staphylococcus aureus MSSA 12-11): 4 µg/mL
- MIC ([1]; Staphylococcus aureus MSSA 12-13): 4 µg/mL
- MIC ([1]; Staphylococcus aureus MSSA 12-14): 2 µg/mL
- MIC [1, 45]: 2 µg/mL
- MIC ([1]; Staphylococcus aureus MSSA 12-16): 4 µg/mL
- MIC ([1]; Staphylococcus aureus MSSA 12-17): 4 µg/mL
- MIC [1, 46]: 2 µg/mL
- MIC ([1]; Staphylococcus aureus MSSA 12-19): 2 µg/mL
- MIC ([1]; Staphylococcus aureus MSSA 12-20): 2 µg/mL
- MIC [1, 47]: 4 µg/mL
- MIC ([3]; Enterococcus faecalis 12-11): >128 µg/mL
- MIC ([3]; Enterococcus faecalis 12-13): >128 µg/mL
- MIC ([3]; Enterococcus faecalis, ATCC29212, Enterococcus faecalis ATCC 29212): 16 µg/mL
- MIC ([3]; Enterococcus faecalis, ATCC51299, Enterococcus faecalis (high endurance) ATCC 51299): 32 µg/mL
- MIC ([3]; Enterococcus faecalis, Enterococcus faecalis 12-12): 4 µg/mL
- MIC ([3]; Enterococcus faecalis, Enterococcus faecalis 12-14): 8 µg/mL
- MIC ([3]; Enterococcus faecalis, Enterococcus faecalis 12-17): 32 µg/mL
- MIC ([3]; Enterococcus faecalis, Enterococcus faecalis 12-18): 16 µg/mL
- MIC ([3]; Enterococcus faecalis, Enterococcus faecalis 12-19): 16 µg/mL
- MIC ([3]; Enterococcus faecalis, Enterococcus faecalis 12-20): 16 µg/mL
- MIC ([3]; Enterococcus faecalis, Enterococcus faecalis 12-21): 16 µg/mL
- MIC ([3]; Enterococcus faecalis, Enterococcus faecalis 12-22): 32 µg/mL
- MIC ([4]; Staphylococcus epidermidis, Staphylococcus epidermidis MSSE 12-11): 1 µg/mL
- MIC ([4]; Staphylococcus epidermidis, Staphylococcus epidermidis MSSE 12-12): 1 µg/mL
- MIC ([4]; Staphylococcus epidermidis, Staphylococcus epidermidis MSSE 12-13): 1 µg/mL
- MIC ([4]; Staphylococcus epidermidis, Staphylococcus epidermidis MSSE 12-14): 16 µg/mL
- MIC ([4]; Staphylococcus epidermidis, Staphylococcus epidermidis MSSE 12-15): 16 µg/mL
- MIC ([4]; Staphylococcus epidermidis, Staphylococcus epidermidis MSSE 12-16): 0.25 µg/mL
- MIC ([4]; Staphylococcus epidermidis, Staphylococcus epidermidis MSSE 12-17): 2 µg/mL
- MIC ([4]; Staphylococcus epidermidis, Staphylococcus epidermidis MSSE 12-18): 1 µg/mL
- MIC ([4]; Staphylococcus epidermidis, Staphylococcus epidermidis MSSE 12-19): 1 µg/mL
- MIC ([4]; Staphylococcus epidermidis, Staphylococcus epidermidis MSSE 12-20): 2 µg/mL
- MIC ([5]; Staphylococcus epidermidis): 1 µg/mL
- MIC ([6]; Enterococcus faecium 12-7): >128 µg/mL
- MIC ([6]; Enterococcus faecium 12-8): >128 µg/mL
- MIC ([6]; Enterococcus faecium 12-9): >128 µg/mL
- MIC ([6]; Enterococcus faecium 12-10): >128 µg/mL
- MIC ([6]; Enterococcus faecium 12-11): >128 µg/mL
- MIC ([6]; Enterococcus faecium 12-12): >128 µg/mL
- MIC ([6]; Enterococcus faecium 12-13): >128 µg/mL
- MIC ([6]; Enterococcus faecium 12-14): >128 µg/mL
- MIC ([6]; Enterococcus faecium 12-15): >128 µg/mL
- MIC ([6]; Enterococcus faecium 12-16): >128 µg/mL
- MIC ([6]; Enterococcus faecium, ATCC33186, Enterococcus faecium ATCC 33186): 16 µg/mL
Compound: CO/N=C(\C(=O)N[C@@H]1C(=O)N2C(C(=O)[O-])=C(C[N+]3(C)CCCC3)CS[C@H]12)c1csc(N)n1 [cefepime, Cefepime hydrochloride]
